Measured values reported in patent US20240018145A1, “[…]-DEPENDENT EN[…] TREATING OR […]” (priority 2020, published 2024).

tested on: FLU A (PR/8/34); assay: Flu A Neuraminidase Antiviral Assay; assay type: cell-based

Compound | EC50 [nM]
Cc1ccccc1C1C(c2ccc(F)c(F)c2)CCC2N(C)C(=O)c3c(O)c(=O)ccn3N12 (single isomer, unassigned) [Compound 91A, 2-(3,4-difluorophenyl)-7-hydroxy-5-methyl-1-(o-tolyl)-1,2,3,4,4a,5-hexahydrodipyrido[1,2-b:2′,1′-f][1,2,4]triazine-6,8-dione] | 485
Cc1ccccc1C1C(c2ccc(F)c(F)c2)CCC2N(C)C(=O)c3c(O)c(=O)ccn3N12 (single isomer, unassigned) [Compound 91B, 2-(3,4-difluorophenyl)-7-hydroxy-5-methyl-1-(o-tolyl)-1,2,3,4,4a,5-hexahydrodipyrido[1,2-b:2′,1′-f][1,2,4]triazine-6,8-dione] | 7.3
CCCC1CCC2N(C)C(=O)c3c(O)c(=O)ccn3N2C1c1ccccc1C (single isomer, unassigned) [Compound 92A, 7-hydroxy-5-methyl-2-propyl-1-(o-tolyl)-1,2,3,4,4a,5-hexahydrodipyrido[1,2-b:2′,1′-f][1,2,4]triazine-6,8-dione] | 4570
CCCC1CCC2N(C)C(=O)c3c(O)c(=O)ccn3N2C1c1ccccc1C (single isomer, unassigned) [Compound 92B, 7-hydroxy-5-methyl-2-propyl-1-(o-tolyl)-1,2,3,4,4a,5-hexahydrodipyrido[1,2-b:2′,1′-f][1,2,4]triazine-6,8-dione] | 3.3
CCN1C(=O)c2c(O)c(=O)ccn2N2C(c3ccccc3C)C(CC(F)(F)F)CCC12 (single isomer, unassigned) [Compound 93A, 5-ethyl-7-hydroxy-1-(o-tolyl)-2-(2,2,2-trifluoroethyl)-1,2,3,4,4a,5-hexahydrodipyrido[1,2-b:2′,1′-f][1,2,4]triazine-6,8-dione] | 475
CCN1C(=O)c2c(O)c(=O)ccn2N2C(c3ccccc3C)C(CC(F)(F)F)CCC12 (single isomer, unassigned) [Compound 93B, 5-ethyl-7-hydroxy-1-(o-tolyl)-2-(2,2,2-trifluoroethyl)-1,2,3,4,4a,5-hexahydrodipyrido[1,2-b:2′,1′-f][1,2,4]triazine-6,8-dione] | 2.9
CCN1C(=O)c2c(O)c(=O)ccn2N2C(c3ccccc3)C(c3ccc(F)c(F)c3)CCC12 (single isomer, unassigned) [Compound 94A, 2-(3,4-difluorophenyl)-5-ethyl-7-hydroxy-1-phenyl-1,2,3,4,4a,5-hexahydrodipyrido[1,2-b:2′,1′-f][1,2,4]triazine-6,8-dione] | 397
CCN1C(=O)c2c(O)c(=O)ccn2N2C(c3ccccc3)C(c3ccc(F)c(F)c3)CCC12 (single isomer, unassigned) [Compound 94B, 2-(3,4-difluorophenyl)-5-ethyl-7-hydroxy-1-phenyl-1,2,3,4,4a,5-hexahydrodipyrido[1,2-b:2′,1′-f][1,2,4]triazine-6,8-dione] | 8.6
Cc1ccccc1C1C(CCC(F)(F)F)CCC2N(C)C(=O)c3c(O)c(=O)ccn3N12 (single isomer, unassigned) [Compound 95A, 7-hydroxy-5-methyl-1-(o-tolyl)-2-(3,3,3-trifluoropropyl)-1,2,3,4,4a,5-hexahydrodipyrido[1,2-b:2′,1′-f][1,2,4]triazine-6,8-dione] | 137
Cc1ccccc1C1C(CCC(F)(F)F)CCC2N(C)C(=O)c3c(O)c(=O)ccn3N12 (single isomer, unassigned) [Compound 95B, 7-hydroxy-5-methyl-1-(o-tolyl)-2-(3,3,3-trifluoropropyl)-1,2,3,4,4a,5-hexahydrodipyrido[1,2-b:2′,1′-f][1,2,4]triazine-6,8-dione] | 7.5
CCCC1CCC2N(CC)C(=O)c3c(O)c(=O)ccn3N2C1c1ccccc1F (single isomer, unassigned) [Compound 96A, 5-ethyl-1-(2-fluorophenyl)-7-hydroxy-2-propyl-1,2,3,4,4a,5-hexahydrodipyrido[1,2-b:2′,1′-f][1,2,4]triazine-6,8-dione] | > 810
CCCC1CCC2N(CC)C(=O)c3c(O)c(=O)ccn3N2C1c1ccccc1F (single isomer, unassigned) [Compound 96B, 5-ethyl-1-(2-fluorophenyl)-7-hydroxy-2-propyl-1,2,3,4,4a,5-hexahydrodipyrido[1,2-b:2′,1′-f][1,2,4]triazine-6,8-dione] | 2.2
CCN1C(=O)c2c(O)c(=O)ccn2N2C(c3ccccc3)C(CC3(C(F)(F)F)CC3)CCC12 (single isomer, unassigned) [Compound 97A, 5-ethyl-7-hydroxy-1-phenyl-2-((1-(trifluoromethyl)cyclopropyl)methyl)-1,2,3,4,4a,5-hexahydrodipyrido[1,2-b:2′,1′-f][1,2,4]triazine-6,8-dione] | > 810
CCN1C(=O)c2c(O)c(=O)ccn2N2C(c3ccccc3)C(CC3(C(F)(F)F)CC3)CCC12 (single isomer, unassigned) [Compound 97B, 5-ethyl-7-hydroxy-1-phenyl-2-((1-(trifluoromethyl)cyclopropyl)methyl)-1,2,3,4,4a,5-hexahydrodipyrido[1,2-b:2′,1′-f][1,2,4]triazine-6,8-dione] | 24.2
O=C1c2c(O)c(=O)ccn2N2C(c3ccccc3)C(CCC(F)(F)F)CCC2N1CC1CC1 (single isomer, unassigned) [Compound 100A, 5-(cyclopropylmethyl)-7-hydroxy-1-phenyl-2-(3,3,3-trifluoropropyl)-1,2,3,4,4a,5-hexahydrodipyrido[1,2-b:2′,1′-f][1,2,4]triazine-6,8-dione] | > 810
O=C1c2c(O)c(=O)ccn2N2C(c3ccccc3)C(CCC(F)(F)F)CCC2N1CC1CC1 (single isomer, unassigned) [Compound 100B, 5-(cyclopropylmethyl)-7-hydroxy-1-phenyl-2-(3,3,3-trifluoropropyl)-1,2,3,4,4a,5-hexahydrodipyrido[1,2-b:2′,1′-f][1,2,4]triazine-6,8-dione] | 5.4
CCN1C(=O)c2c(O)c(=O)ccn2N2C(c3ccccc3F)C(CCC(F)F)CCC12 (single isomer, unassigned) [Compound 101A, 2-(3,3-difluoropropyl)-5-ethyl-1-(2-fluorophenyl)-7-hydroxy-1,2,3,4,4a,5-hexahydrodipyrido[1,2-b:2′,1′-f][1,2,4]triazine-6,8-dione] | 148
CCN1C(=O)c2c(O)c(=O)ccn2N2C(c3ccccc3F)C(CCC(F)F)CCC12 (single isomer, unassigned) [Compound 101B, 2-(3,3-difluoropropyl)-5-ethyl-1-(2-fluorophenyl)-7-hydroxy-1,2,3,4,4a,5-hexahydrodipyrido[1,2-b:2′,1′-f][1,2,4]triazine-6,8-dione] | 5.6
CCN1C(=O)c2c(O)c(=O)ccn2N2C(c3ccccc3C)C(CCC(F)F)CCC12 (single isomer, unassigned) [Compound 102A, 2-(3,3-difluoropropyl)-5-ethyl-7-hydroxy-1-(o-tolyl)-1,2,3,4,4a,5-hexahydrodipyrido[1,2-b:2′,1′-f][1,2,4]triazine-6,8-dione] | 2.9
CCN1C(=O)c2c(O)c(=O)ccn2N2C(c3ccccc3C)C(CCC(F)F)CCC12 (single isomer, unassigned) [Compound 102B, 2-(3,3-difluoropropyl)-5-ethyl-7-hydroxy-1-(o-tolyl)-1,2,3,4,4a,5-hexahydrodipyrido[1,2-b:2′,1′-f][1,2,4]triazine-6,8-dione] | 36.5
